Like-named read-outs stand apart in the source and are kept apart here.
Experiments:
[1] = tested on: Metrazol-Induced Convulsions; assay: Suppression of Metrazol-Induced Convulsions in Adult Male Mice; format: in vivo, mice (male CD1); settings: Mus musculus, ip, read-out: anti-metrazol ED50
Description: Assay to Determine the Suppression of Metrazol-Induced Convulsions in Adult Male Mice
Male CD1 mice, were fasted at least 16 hours, were divided into equal groups and test compounds or vehicle were administered parenterally. Water was not withheld except during the period of observations. […] Metrazol was dissolved in 0.9% sodium chloride solution, and its dose volume was 10 ml/kg. Animals were housed individually for observation of clonic convulsions, tonic convulsions and death for a period of 30 min. […] The biological assay was considered to be valid if the effects of a known anticonvulsant (positive control) were detected, within the same experiment. Activity was reported as percent reduction of clonic convulsions from the vehicle group.

[2] = tested on: behavior suppressed by punishment (rat conflict); assay: Suppression of Anxiety in the Adult Male Rat (rat conflict, Vogel); format: in vivo; settings: po
Description: Assay to Measure the Suppression of Anxiety in the Adult Male Rat
Male rats were deprived of water for 48 hours and were deprived of food for 24 hours prior to testing. After the first 24 hours of water deprivation, they were placed in the conflict chamber for a training period; wherein, they were allowed 200 unpunished licks from a bottle containing tap water. The experiment was run the next day. At the expected time of peak activity, the animals were placed in the chamber and allowed access to tap water. […] Their first lick initiates a 3-min test session. Subsequently,every 20th lick was punished by a 0.2-s shock delivered via the stainless-steel drinking-tube. […] The Wilcoxon rank-sum test (Mann-WhitneyU-test) was used to test for an increase (p<0.05, 1-tailed) in the median number of shocks in drug-treated groups, compared to a concurrently run vehicle-treated group. The biological assay is considered to be valid if the effects of a known anxiolytic (positive control) are detected, within the same experiment.

[3] = biological target: benzodiazepine site of the GABA-A receptor; assay: Benzodiazepine Receptor Binding Assay (inhibition of 3H-flunitrazepam binding); settings: 3H-flunitrazepam ca. 3 nM
[4] = mice, s.c. CD90 metrazol, clonic convulsions
[5] = Rattus norvegicus, read-out: rat conflict MED, po, minimum effective dose, Wilcoxon rank-sum test p<0.05
[6] = minimum effective dose, Wilcoxon rank-sum test p<0.05, read-out: rat conflict MED

SMILES	ED50 [1, 4]	minimal effective dose [2, 5]	IC50 [3]	minimal effective dose [2, 6]	ED50 [1]
O=C1CCN2C(=C1C(=O)Nc1ccccc1F)N(CC1CC1)c1cc3ccccc3cc12 [Example 14]	< 1 mg/kg	> 10 mg/kg	0.57 nM	–	–
O=C1CCN2C(=C1C(=O)Nc1c(F)cccc1F)Nc1cc3ccccc3cc12 [Example 2, 3-oxo-1,2,3,5-tetrahydronaphtho[2',3': 4,5]imidazo[1,2-a]pyridine-4-carboxylic acid (2,6-difluorophenyl)amide]	1 mg/kg	> 10 mg/kg	3.95 nM	–	–
CCOCN1C2=C(C(=O)Nc3c(F)cccc3F)C(=O)CCN2c2ccc3ccccc3c21 [Example 26]	–	> 10 mg/kg	10.3 nM	–	–
CN(CCN1C2=C(C(=O)Nc3ccccc3F)C(=O)CCN2c2cc3ccccc3cc21)Cc1ccccc1 [Example 6, 5-[2-(benzylmethylamino)ethyl)-3-oxo-1,2,3,5-tetrahydronaphtho[2',3': 4,5]imidazo[1,2-a]pyridine-4-carboxylic acid (2-fluorophenyl)amide]	> 1 mg/kg	> 10 mg/kg	8.02 nM	–	–
COCCN1C2=C(C(=O)Nc3nccs3)C(=O)CCN2c2cc3ccccc3cc21 [Example 19]	< 1 mg/kg	> 10 mg/kg	3.37 nM	–	–
CCN1C2=C(C(=O)Nc3nccs3)C(=O)CCN2c2cc3ccccc3cc21 [Example 18]	< 1 mg/kg	> 10 mg/kg	11.1 nM	–	–
CCN1C2=C(C(=O)Nc3ccccc3F)C(=O)CCN2c2ccc3ccccc3c21 [Example 21]	> 1 mg/kg	–	16.5 nM	> 10 mg/kg	–
COCCN1C2=C(C(=O)Nc3c(F)cccc3F)C(=O)CCN2c2ccc3ccccc3c21 [Example 24]	1 mg/kg	–	0.29 nM	> 3 mg/kg	–
CCN1C2=C(C(=O)Nc3c(F)cccc3F)C(=O)CCN2c2cc3ccccc3cc21 [Example 4, 5-ethyl-3-oxo-1,2,3,5-tetrahydronaphtho[2',3': 4,5]imidazo[1,2-a]pyridine-4-carboxylic acid (2,6-difluorophenyl)amide]	> 1 mg/kg	–	6.87 nM	> 10 mg/kg	–
CCOCN1C2=C(C(=O)Nc3ccccc3F)C(=O)CCN2c2cc3ccccc3cc21 [Example 15]	< 1 mg/kg	> 10 mg/kg	2.18 nM	–	–
O=C1CCN2C(=C1C(=O)Nc1ccccc1F)Nc1c2ccc2ccccc12 [Example 13, 3-Oxo-1,2,3,5-tetrahydronaphtho[1',2': 4,5]imidazo[1,2-a]pyridine-4-carboxylic acid (2-fluorophenylamide)]	> 1 mg/kg	–	154 nM	> 10 mg/kg	–
CCOCCN1C2=C(C(=O)Nc3c(F)cccc3F)C(=O)CCN2c2ccc3ccccc3c21 [Example 25]	–	–	3.72 nM	> 3 mg/kg	–
O=C1CCN2C(=C1C(=O)Nc1nccs1)Nc1cc3ccccc3cc12 [Example 17]	> 1 mg/kg	–	360 nM	–	–
CCN1C2=C(C(=O)Nc3cccs3)C(=O)CCN2c2cc3ccccc3cc21 [Example 16]	< 1 mg/kg	–	0.7 nM	> 10 mg/kg	–
COCCN1C2=C(C(=O)Nc3ccccc3F)C(=O)CCN2c2ccc3ccccc3c21 [Example 22]	> 1 mg/kg	> 10 mg/kg	31.8 nM	–	–
CNCCN1C2=C(C(=O)Nc3c(F)cccc3F)C(=O)CCN2c2cc3ccccc3cc21.Cl [Example 9, 5-[2-(methylamino)ethyl)-3-oxo-1,2,3,5-tetrahydronaphtho[2',3': 4,5]imidazo[1,2-a]pyridine-4-carboxylic acid (2,6-difluorophenyl)amide hydrochloride]	> 1 mg/kg	–	75 nM	> 10 mg/kg	–
CNCCN1C2=C(C(=O)Nc3ccccc3F)C(=O)CCN2c2cc3ccccc3cc21.Cl [Example 8, 5-[2-(methylamino)ethyl)-3-oxo-1,2,3,5-tetrahydronaphtho[2',3': 4,5]imidazo[1,2-a]pyridine-4-carboxylic acid (2-fluorophenyl)amide hydrochloride]	> 1 mg/kg	> 10 mg/kg	7.98 nM	–	–
O=C1CCN2C(=C1C(=O)Nc1ccccc1F)Nc1ccc3ccccc3c12 [Example 11, 3-Oxo-1,2,3,5-tetrahydronaphtho[2',1': 4,5]imidazo[1,2-a]-pyridine-4-carboxylic acid (2-fluorophenylamide)]	> 1 mg/kg	–	> 1000 nM	> 10 mg/kg	–
O=C1CCN2C(=C1C(=O)Nc1ccccc1F)Nc1cc3ccccc3cc12 [Example 1, 3-oxo-1,2,3,5-tetrahydronaphtho[2',3': 4,5]imidazo[1,2-a]pyridine-4-carboxylic acid (2-fluorophenyl)amide]	–	–	17 nM	> 10 mg/kg	1 mg/kg
CCN1C2=C(C(=O)Nc3ccccc3F)C(=O)CCN2c2cc3ccccc3cc21 [Example 3, 5-ethyl-3-oxo-1,2,3,5-tetrahydronaphtho[2',3': 4,5]imidazo[1,2-a]pyridine-4-carboxylic acid (2-fluorophenyl)amide]	< 1 mg/kg	–	0.94 nM	10 mg/kg	–
CN(CCN1C2=C(C(=O)Nc3c(F)cccc3F)C(=O)CCN2c2cc3ccccc3cc21)Cc1ccccc1 [Example 7, 5-[2-(benzylmethylamino)ethyl)-3-oxo-1,2,3,5-tetrahydronaphtho[2',3': 4,5]imidazo[1,2-a]pyridine-4-carboxylic acid (2.6-difluorophenyl)amide]	> 1 mg/kg	–	58 nM	> 10 mg/kg	–
COCCN1C2=C(C(=O)Nc3ccccc3F)C(=O)CCN2c2c1ccc1ccccc21 [Example 12, 5-(2-Methoxyethyl)-3-oxo-1,2,3,5-tetrahydronaphtho[2',1': 4,5]-imidazo[1,2-a]pyridine-4-carboxylic acid (2-fluorophenylamide)]	> 1 mg/kg	–	58 nM	> 10 mg/kg	–
O=C1CCN2C(=C1C(=O)Nc1c(F)cccc1F)Nc1c2ccc2ccccc12 [Example 20]	< 1 mg/kg	–	2.73 nM	> 10 mg/kg	–
CCOCN1C2=C(C(=O)Nc3c(F)cccc3F)C(=O)CCN2c2cc3ccccc3cc21 [Example 10, 5-Ethoxymethyl-3-oxo-1,2,3,5-tetrahydronaphtho[2',3': 4,5]-imidazo[1,2-a]pyridine-4-carboxylic acid (2,6-difluorophenyl)amide]	> 1 mg/kg	–	13 nM	> 10 mg/kg	–
O=C1CCN2C(=C1C(=O)Nc1c(F)cccc1F)Nc1c2ccc2ccccc12 [Example 23]	–	10 mg/kg	17.9 nM	–	–
COCCN1C2=C(C(=O)Nc3ccccc3F)C(=O)CCN2c2cc3ccccc3cc21 [Example 5, 5-(2-methoxyethyl)-3-oxo-1,2,3,5-tetrahydronaphthol[2',3': 4,5]-imidazo[1,2-a]pyridine-4-carboxylic acid (2-fluorophenyl)amide]	< 1 mg/kg	–	0.37 nM	10 mg/kg	–

Reference: patent US6200984A, “Naphtho-imidazo pyridine derivatives useful in treating central nervous system disorders” (Ortho-McNeil Pharmaceutical, Inc., priority 1998, dated 2001)
